The text below walks through data of patent US7989430B2, “Antibacterial agents” (priority 2005, dated 2011).

In brackets after ≈: the same amount, converted by molar mass.

Data set [1] relates to M. tuberculosis H37Rv. Conditions: Ferreras et al., Nature Chem. Biol. 2005, likely the free acid form; cited from earlier work.
Data set [2] deals with M. tuberculosis H37Rv. Description: M. tuberculosis H37Rv MIC assay (whole-cell). In kind it is cell-based, Mycobacterium tuberculosis.
The nature of data set [3]: Chemical stability on storage. As to conditions: salt form prepared in Example 1 vs free acid.
The next data set concerns the target MbtA (Mycobacterium tuberculosis, UniProt P71716). Conditions: data not shown.
For data set [4] the following is noted: 50% aq TFA, 3 h.

Sequence of MbtA (P71716 whole entry): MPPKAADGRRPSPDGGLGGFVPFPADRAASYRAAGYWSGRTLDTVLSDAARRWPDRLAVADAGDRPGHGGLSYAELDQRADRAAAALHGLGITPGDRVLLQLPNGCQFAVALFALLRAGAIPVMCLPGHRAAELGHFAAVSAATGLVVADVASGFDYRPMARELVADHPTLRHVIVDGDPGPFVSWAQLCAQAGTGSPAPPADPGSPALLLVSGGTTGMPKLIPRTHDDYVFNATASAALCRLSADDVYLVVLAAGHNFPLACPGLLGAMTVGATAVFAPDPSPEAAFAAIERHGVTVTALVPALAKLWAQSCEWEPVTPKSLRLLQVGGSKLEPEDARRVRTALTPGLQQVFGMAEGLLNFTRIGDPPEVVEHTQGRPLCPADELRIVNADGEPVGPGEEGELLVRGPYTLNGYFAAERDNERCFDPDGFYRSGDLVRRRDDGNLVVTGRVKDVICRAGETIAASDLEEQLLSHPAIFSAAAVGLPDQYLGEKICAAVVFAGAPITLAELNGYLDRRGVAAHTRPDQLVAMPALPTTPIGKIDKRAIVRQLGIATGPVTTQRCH
Procedure for MbtA: Adenylation Inhibition Assay. […] The assay exploits the equilibrium nature of the acylation reaction which can be summarized as follows: E+S+ATP ? [E-S-AMP]+PPi. […] Thus, ^32PPi is added and its incorporation to [^32P]ATP is measured. The ^32P-ATP formed is isolated by adsorption onto charcoal and the charcoal is washed to remove [^32P]PPi. The charcoal is transferred to a scintillation vial and counts are measured on a Beckman 6800 scintillation counter using liquid-scintillation-counting. Data Analysis. The counts obtained from above are used to determine the initial velocity of ^32P-ATP formation (ν0). Measuring the initial velocity (ν0) at in the presence of various concentrations of inhibitor allows one to measure the KI values of the inhibitors. Potential irreversible inactivators are examined for any noncompetitive behavior by pre-incubating with MbtA for various times. A time dependent inhibition is evidence for irreversible inactivation.

As to `Nc1ncnc2c1ncn2[C@@H]1O[C@H](COS(=O)(=O)NC(=O)c2ccc(O)c(O)c2)[C@@H](O)[C@H]1O`, the melting point (as a rule, the temperature, or range, at which the solid turns liquid) was > 190 °C (dec.). In the case of `Nc1ncnc2c1ncn2[C@@H]1O[C@H](COS(=O)(=O)NC(=O)c2ccccc2O)[C@@H](O)[C@H]1O` [Compound 34, 5′-O—(N-(2-hydroxybenzoyl)sulfamoyl)adenosine], the MIC50 (as a rule, the lowest concentration that inhibits either 50% of growth or 50% of the strains tested, depending on the study) with M. tuberculosis H37Rv [1] was 2.2 µM (≈ 1.03 µg/mL). As to `CCN(CC)CC.Nc1ncnc2c1ncn2[C@@H]1O[C@H](COS(=O)(=O)NC(=O)c2ccccc2O)[C@@H](O)[C@H]1O` [Example 1, 5′-O—(N-(2-Hydroxybenzoyl)sulfamoyl)-adenosine triethylammonium salt], the “potency against M. tuberculosis H37Rv relative to the free acid” value in the data set with M. tuberculosis H37Rv [2] (salt form vs free acid) is on record as “about 28 times”. The “stability relative to the free acid” value in data set [3] is “significantly more stable”.

Regarding `CCN(CC)CC.Nc1ncnc2c1ncn2[C@H]1C[C@H](O)[C@@H](COS(=O)(=O)NC(=O)c2ccccc2O)O1` [Example 42, 2′-Deoxy-5′-O—[N-(2-hydroxybenzoyl)sulfamoyl]-adenosine triethylammonium salt], the “activity in whole-cell assay of M. tuberculosis” value with M. tuberculosis H37Rv [2] (data not shown) is “potent activity”. For the same compound, the “activity in the in vitro enzyme assay” value on MbtA was “potent activity”. Moreover, the “stability under acidic conditions” value in data set [4] was “unstable”.
